In patent publication US20240317721A1, “PYRAZOLYL DERIVATIVES AS INHIBITORS OF THE KRAS MUTANT PROTEIN” (NOVARTIS AG, priority 2021, published 2024) one finds IC50 data, which are given here for 28 compounds.

Each structure is given as a SMILES string.

The target in the assay is KRasG12C (M1-K169, biotinylated on the N-terminus) (Homo sapiens (Human), UniProt P01116, G12C). As to the kind of experiment: Covalent competition assay: scintillation proximity assay (SPA) quantifying covalent modification of KRASG12C. In kind it is binding. To be noted: competition with radiolabeled covalent probe (Compound B/Compound A), 2 hours incubation, 10 nM KRasG12C. The essentials:
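Test compounds compete with a radiolabeled covalent probe for modification of N-terminally biotinylated KRasG12C(M1-K169):GDP, final 10 nM protein, 25 nM radio-ligand, 475 nM unlabelled ligand, 2 h with agitation in 20 mM Tris-HCl pH 7.5, 150 mM NaCl, 0.1 mM MgCl2, 0.01% Tween-20.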
For orientation: In a scintillation proximity assay essentially only radioactivity close to the scintillant gives light.
The term IC50 denotes the concentration that gives 50% inhibition. In the case of `C=CC(=O)N1CC2(CC(n3nc(N4CCN(C(COC)COC)C[C@]4(C)CC)c(-c4c(Cl)c(C)cc5[nH]ncc45)c3C)C2)C1` (single isomer, unassigned) [Example 187a], the IC50 turned out to be 4.2 µM.

As to `C=CC(=O)N1CC2(CC(n3nc(N4CCN(C(COC)COC)C[C@]4(C)CC)c(-c4c(Cl)c(C)cc5[nH]ncc45)c3C)C2)C1` (single isomer, unassigned) [Example 187b], the IC50 came out at 0.005 µM.

For the compound `C=CC(=O)N1CC2(CC(n3nc(N4CCN(Cc5cn(C)nn5)C[C@]4(C)CC)c(-c4c(Cl)c(C)cc5[nH]ncc45)c3C)C2)C1` (single isomer, unassigned) [Example 188a], the IC50 worked out at 0.387 µM.

In the case of `C=CC(=O)N1CC2(CC(n3nc(N4CCN(Cc5cn(C)nn5)C[C@]4(C)CC)c(-c4c(Cl)c(C)cc5[nH]ncc45)c3C)C2)C1` (single isomer, unassigned) [Example 188b], the IC50 is 0.006 µM.

On to `C=CC(=O)N1CC2(CC(n3nc(N4CCN(C[C@H]5COCCO5)CC45CCC5)c(-c4c(Cl)c(C)cc5[nH]ncc45)c3C)C2)C1` (single isomer, unassigned) [Example 189a], for which the IC50 is greater than 5 µM.

As to `C=CC(=O)N1CC2(CC(n3nc(N4CCN(C[C@H]5COCCO5)CC45CCC5)c(-c4c(Cl)c(C)cc5[nH]ncc45)c3C)C2)C1` (single isomer, unassigned) [Example 189b], the IC50 stood at 0.015 µM.

For `C=CC(=O)N1CC2(CC(n3nc(N4CCN(C(C)(C)CO)CC45CCC5)c(-c4c(Cl)c(C)cc5[nH]ncc45)c3C)C2)C1` (single isomer, unassigned) [Example 190a, 1-(6-(4-(5-Chloro-6-methyl-1H-indazol-4-yl)-3-(8-(1-hydroxy-2-methylpropan-2-yl)-5,8-diazaspiro[3.5]nonan-5-yl)-5-methyl-1H-pyrazol-1-yl)-2-azaspiro[3.3]heptan-2-yl)prop-2-en-1-one], the IC50 came to 4.5 µM.

Consider `C=CC(=O)N1CC2(CC(n3nc(N4CCN(C(C)(C)CO)CC45CCC5)c(-c4c(Cl)c(C)cc5[nH]ncc45)c3C)C2)C1` (single isomer, unassigned) [Example 190b, 1-(6-(4-(5-Chloro-6-methyl-1H-indazol-4-yl)-3-(8-(1-hydroxy-2-methylpropan-2-yl)-5,8-diazaspiro[3.5]nonan-5-yl)-5-methyl-1H-pyrazol-1-yl)-2-azaspiro[3.3]heptan-2-yl)prop-2-en-1-one], for which the IC50 is 0.111 µM.

Regarding `C=CC(=O)N1CC2(CC(n3nc(N4CCN(C5(C)COC5)CC45CCC5)c(-c4c(Cl)c(C)cc5[nH]ncc45)c3C)C2)C1` (single isomer, unassigned) [Example 191a, 1-(6-(4-(5-Chloro-6-methyl-1H-indazol-4-yl)-5-methyl-3-(8-(3-methyloxetan-3-yl)-5,8-diazaspiro[3.5]nonan-5-yl)-1H-pyrazol-1-yl)-2-azaspiro[3.3]heptan-2-yl)prop-2-en-1-one], the IC50 was greater than 5 µM.

Regarding `C=CC(=O)N1CC2(CC(n3nc(N4CCN(C5(C)COC5)CC45CCC5)c(-c4c(Cl)c(C)cc5[nH]ncc45)c3C)C2)C1` (single isomer, unassigned) [Example 191b, 1-(6-(4-(5-Chloro-6-methyl-1H-indazol-4-yl)-5-methyl-3-(8-(3-methyloxetan-3-yl)-5,8-diazaspiro[3.5]nonan-5-yl)-1H-pyrazol-1-yl)-2-azaspiro[3.3]heptan-2-yl)prop-2-en-1-one], the IC50 was 0.014 µM.

Turning to `C=CC(=O)N1CC2(CC(n3nc(N4CCN(c5ccnnc5)C[C@]4(C)CC)c(-c4c(Cl)c(C)cc5[nH]ncc45)c3C)C2)C1` (single isomer, unassigned) [Example 192a], the IC50 was greater than 5 µM.

`C=CC(=O)N1CC2(CC(n3nc(N4CCN(c5ccnnc5)C[C@]4(C)CC)c(-c4c(Cl)c(C)cc5[nH]ncc45)c3C)C2)C1` (single isomer, unassigned) [Example 192b]: the IC50 is 0.008 µM.

With `C=CC(=O)N1CC2(CC(n3nc(N4CCN(c5cnn(C)c5)CC4(C)C)c(-c4c(Cl)c(C)cc5[nH]ncc45)c3C)C2)C1` (single isomer, unassigned) [Example 193a, 1-(6-(4-(5-Chloro-6-methyl-1H-indazol-4-yl)-3-(2,2-dimethyl-4-(1-methyl-1H-pyrazol-4-yl)piperazin-1-yl)-5-methyl-1H-pyrazol-1-yl)-2-azaspiro[3.3]heptan-2-yl)prop-2-en-1-one], the IC50 came to 20.8 µM.

On to `C=CC(=O)N1CC2(CC(n3nc(N4CCN(c5cnn(C)c5)CC4(C)C)c(-c4c(Cl)c(C)cc5[nH]ncc45)c3C)C2)C1` (single isomer, unassigned) [Example 193b, 1-(6-(4-(5-Chloro-6-methyl-1H-indazol-4-yl)-3-(2,2-dimethyl-4-(1-methyl-1H-pyrazol-4-yl)piperazin-1-yl)-5-methyl-1H-pyrazol-1-yl)-2-azaspiro[3.3]heptan-2-yl)prop-2-en-1-one], for which the IC50 amounted to 0.028 µM.

As for `C=CC(=O)N1CC2(CC(n3nc(N4CCN(c5nccn5C)C[C@]4(C)CC)c(-c4c(Cl)c(C)cc5[nH]ncc45)c3C)C2)C1` (single isomer, unassigned) [Example 194a], the IC50 turned out to be 0.019 µM.

For `C=CC(=O)N1CC2(CC(n3nc(N4CCN(c5nccn5C)C[C@]4(C)CC)c(-c4c(Cl)c(C)cc5[nH]ncc45)c3C)C2)C1` (single isomer, unassigned) [Example 194b], the IC50 came out at 1.3 µM.

As to `C=CC(=O)N1CC2(CC(n3nc(N4CCN(C(C)=O)CC4)c(-c4c(Cl)ccc5[nH]ncc45)c3C)C2)C1C` (single isomer, unassigned) [Example 195a, 1-(6-(3-(4-Acetylpiperazin-1-yl)-4-(5-chloro-1H-indazol-4-yl)-5-methyl-1H-pyrazol-1-yl)-1-methyl-2-azaspiro[3.3]heptan-2-yl)prop-2-en-1-one], the IC50 is 10.4 µM.

On to `C=CC(=O)N1CC2(CC(n3nc(N4CCN(C(C)=O)CC4)c(-c4c(Cl)ccc5[nH]ncc45)c3C)C2)C1C` (single isomer, unassigned) [Example 195b, 1-(6-(3-(4-Acetylpiperazin-1-yl)-4-(5-chloro-1H-indazol-4-yl)-5-methyl-1H-pyrazol-1-yl)-1-methyl-2-azaspiro[3.3]heptan-2-yl)prop-2-en-1-one], for which the IC50 is greater than 50 µM.

In the case of `C=CC(=O)N1CC2(CC(n3nc(N4CCN(C(C)=O)CC4)c(-c4c(Cl)ccc5[nH]ncc45)c3C)C2)C1C` (single isomer, unassigned) [Example 196a, 1-(6-(3-(4-acetylpiperazin-1-yl)-4-(5-chloro-1H-indazol-4-yl)-5-methyl-1H-pyrazol-1-yl)-1-methyl-2-azaspiro[3.3]heptan-2-yl)prop-2-en-1-one], the IC50 was greater than 50 µM.

As for `C=CC(=O)N1CC2(CC(n3nc(N4CCN(C(C)=O)CC4)c(-c4c(Cl)ccc5[nH]ncc45)c3C)C2)C1C` (single isomer, unassigned) [Example 196b, 1-(6-(3-(4-acetylpiperazin-1-yl)-4-(5-chloro-1H-indazol-4-yl)-5-methyl-1H-pyrazol-1-yl)-1-methyl-2-azaspiro[3.3]heptan-2-yl)prop-2-en-1-one], the IC50 is 9 µM.

`C=CC(=O)N1CC2(CC(n3nc(N4CCN(C(C)=O)CC4)c(-c4c(Cl)ccc5[nH]ncc45)c3C)C2)C1C` (single isomer, unassigned) [Example 197a, 1-(6-(3-(4-acetylpiperazin-1-yl)-4-(5-chloro-1H-indazol-4-yl)-5-methyl-1H-pyrazol-1-yl)-1-methyl-2-azaspiro[3.3]heptan-2-yl)prop-2-en-1-one]: the IC50 was greater than 50 µM.

As for `C=CC(=O)N1CC2(CC(n3nc(N4CCN(C(C)=O)CC4)c(-c4c(Cl)ccc5[nH]ncc45)c3C)C2)C1C` (single isomer, unassigned) [Example 197b, 1-(6-(3-(4-acetylpiperazin-1-yl)-4-(5-chloro-1H-indazol-4-yl)-5-methyl-1H-pyrazol-1-yl)-1-methyl-2-azaspiro[3.3]heptan-2-yl)prop-2-en-1-one], the IC50 is 49.7 µM.

In the case of `C=CC(=O)N1CC2(CC(n3nc(N4CCN(C(C)=O)CC4)c(-c4c(Cl)ccc5[nH]ncc45)c3C)C2)C1C` (single isomer, unassigned) [Example 198a, 1-(6-(3-(4-acetylpiperazin-1-yl)-4-(5-chloro-1H-indazol-4-yl)-5-methyl-1H-pyrazol-1-yl)-1-methyl-2-azaspiro[3.3]heptan-2-yl)prop-2-en-1-one], the IC50 is greater than 50 µM.

With `C=CC(=O)N1CC2(CC(n3nc(N4CCN(C(C)=O)CC4)c(-c4c(Cl)ccc5[nH]ncc45)c3C)C2)C1C` (single isomer, unassigned) [Example 198b, 1-(6-(3-(4-acetylpiperazin-1-yl)-4-(5-chloro-1H-indazol-4-yl)-5-methyl-1H-pyrazol-1-yl)-1-methyl-2-azaspiro[3.3]heptan-2-yl)prop-2-en-1-one], the IC50 is greater than 50 µM.

Consider `C=CC(=O)N1CC2(CC(n3nc(N4CCN(C[C@@H]5COCCO5)C[C@]4(C)CC)c(-c4c(Cl)c(C)cc5[nH]ncc45)c3C)C2)C1C` (single isomer, unassigned) [Example 199a], for which the IC50 is greater than 5 µM.

As for `C=CC(=O)N1CC2(CC(n3nc(N4CCN(C[C@@H]5COCCO5)C[C@]4(C)CC)c(-c4c(Cl)c(C)cc5[nH]ncc45)c3C)C2)C1C` (single isomer, unassigned) [Example 199b], the IC50 came out at 0.037 µM.

In the case of `C=CC(=O)N1C[C@]2(C[C@H](n3nc(N4CCN(C[C@@H]5COCCO5)C[C@]4(C)CC)c(-c4c(Cl)c(C)cc5[nH]ncc45)c3C)C2)[C@H]1C` (single isomer, unassigned) [Example 200a], the IC50 was greater than 5 µM.

With `C=CC(=O)N1C[C@]2(C[C@H](n3nc(N4CCN(C[C@@H]5COCCO5)C[C@]4(C)CC)c(-c4c(Cl)c(C)cc5[nH]ncc45)c3C)C2)[C@H]1C` (single isomer, unassigned) [Example 200b], the IC50 was 0.023 µM.
